This is an account of results in patent US20070014723A1, “Methods and compositions for 10Beryllium complex probes” (priority 2005, published 2007).

What all share (type): cell-based, human
Assay [1] concerns BAL lymphocytes from CBD and BeS subjects. Put plainly: Apoptosis of BAL lymphocytes.
In assay [2] the test system is BAL cells (Be-specific BAL T cells). Put plainly: Beryllium lymphocyte proliferation test (BeLPT), BAL cells. To be noted: for Peak CBD BAL cell BeLPT stimulation index, median (minimum, maximum): CBD BAL cells, n = 4, 10^-10 M Be-ferritin, 10^-4 M BeSO4, 10^-4 M Al2(SO4)3, ferritin.
Assay [3] relates to BAL macrophages from CBD subjects. Description: Apoptosis (nuclear fragmentation) of CBD BAL macrophages. To be noted: 100 μM BeSO4, 50 μg Be-ferritin adduct containing 270 picomoles of Be, or ferritin alone, mean±SEM. As for the experimental part:
FIG. 1. illustrates an exemplary histogram of (a) TUNEL (assay for DNA strand break) positive nuclear staining of CBD BAL macrophages after exposure to 100 μM BeSO4 and (b) nuclear fragmentation in CBD BAL macrophages exposed to Be-ferritin containing 270 picomoles of Be. (c) The percent (mean %±SEM) of CBD BAL cells (n=8) with TUNEL positive nuclei (black) or with fragmented nuclei (open) after exposure to 100 μM BeSO4. *p<0.05 versus the corresponding unstimulated control.
Cell Cultivation: Bronchoalveolar lavage (BAL) was performed as previously described. […] BAL macrophages and T cells were separated by an adherence method known in the art.

Marks after values point to notes of the source that are not given here.

On to `O=S(=O)([O-])[O-].[Be+2]` [BeSO4, Beryllium sulfate], for which, in assay [1], the “Induction of apoptosis of BAL lymphocytes” value is “did not induce”. Further, the “BAL BeLPT SI, median (minimum, maximum)” value in assay [2] (BeS subjects, peak SI after BeSO4 stimulation) is on record as 1.9 (1.2, 46). Moreover, in assay [2], the “Peak CBD BAL cell BeLPT stimulation index, median (minimum, maximum)” value is given as 18.5 (3.7, 124)**. For the same compound, in assay [3], the “BAL macrophages with apoptotic fragmented nuclei” value is given as 50%±6%.

With ferritin, the “Peak CBD BAL cell BeLPT stimulation index, median (minimum, maximum)” value in assay [2] is 1.1 (0.8, 1.3). Further, in assay [3], the “BAL macrophages with apoptotic fragmented nuclei” value was less than 3%.
